What was measured:
NUP-MDSC cell lysate [1] = molecular target: T1, NUP-MDSC cell lysate (Mus musculus, UniProt O70589); assay: Solvent-induced protein precipitation profiling, proteome-wide; assay type: binding; settings: protein Cask; soluble fraction; 26 uM
T1 construct: endogenous in cells; host or cells: mouse NUP-MDSC (lysate)
T1 sequence (O70589 1-926): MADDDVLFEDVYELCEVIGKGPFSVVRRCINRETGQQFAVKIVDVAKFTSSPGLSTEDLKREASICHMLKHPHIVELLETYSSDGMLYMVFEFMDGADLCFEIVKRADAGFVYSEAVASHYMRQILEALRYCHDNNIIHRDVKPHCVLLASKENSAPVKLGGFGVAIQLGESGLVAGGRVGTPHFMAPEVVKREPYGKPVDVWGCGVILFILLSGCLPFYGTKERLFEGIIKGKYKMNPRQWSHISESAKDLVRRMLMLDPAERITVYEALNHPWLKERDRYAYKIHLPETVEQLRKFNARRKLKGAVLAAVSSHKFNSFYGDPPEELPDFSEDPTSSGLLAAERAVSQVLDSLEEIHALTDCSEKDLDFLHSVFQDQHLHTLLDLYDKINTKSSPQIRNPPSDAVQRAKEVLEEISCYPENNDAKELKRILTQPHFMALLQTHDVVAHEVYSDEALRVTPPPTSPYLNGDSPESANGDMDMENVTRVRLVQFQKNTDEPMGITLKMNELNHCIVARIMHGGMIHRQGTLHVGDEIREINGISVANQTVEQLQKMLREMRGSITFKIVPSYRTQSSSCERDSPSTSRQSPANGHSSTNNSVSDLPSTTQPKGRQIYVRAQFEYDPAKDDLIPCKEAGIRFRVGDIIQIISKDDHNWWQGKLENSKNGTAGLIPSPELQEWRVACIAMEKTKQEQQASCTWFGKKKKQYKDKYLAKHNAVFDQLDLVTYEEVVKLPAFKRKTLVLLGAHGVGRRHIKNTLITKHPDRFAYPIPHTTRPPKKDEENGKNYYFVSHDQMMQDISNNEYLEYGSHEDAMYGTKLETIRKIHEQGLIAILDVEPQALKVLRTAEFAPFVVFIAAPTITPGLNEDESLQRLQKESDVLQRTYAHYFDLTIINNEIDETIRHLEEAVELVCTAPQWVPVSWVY
Description: (§1) NUP-MDSCs were differentiated as described above, washed twice with PBS, resuspended in lysis buffer (PBS, 0.4% IGEPAL CA-630, 1× Halt Protease-Inhibitor Cocktail (Thermo Fisher Scientific)), and subjected to three freeze-thaw cycles. The lysate was cleared by centrifugation for 30 min at 18,000g and 4 °C. The soluble fraction was diluted to 4 mg/ml and allowed to warm up to room temperature. Equal volumes of lysate were treated in triplicates with 100 x compound stock solutions (in DMSO) or DMSO for 15 min at room temperature (final concentrations: cmpd 2: 7.8 μM (3xEC50) and 26 μM (10xEC50), cmpd 3: 10 μM and 26 μM). Similar to a previous study ([46]), each sample was divided into eight aliquots to be denatured using different concentrations (8%, 10%, 12%, 14%, 16%, 18%, 20%, 22%) of acetone:ethanol:acetic acid (50:50:0.1) in water for 20 min at 37 °C with vigorous shaking. Aggregated proteins were separated by centrifugation for 45 min at 4 °C and 3900g. Next, equal amounts of the soluble fraction were pooled for subsequent proteomic analysis.
(§2) Methanol was added to 100 μg of the pooled supernatants to a final concentration of 70% and further processed according to the R2P1 protocol ([47]), with tryptic digestion performed in 50 mM Hepes (pH 8.5). Elution fractions were combined and dried by vacuum centrifugation. Dried samples were resuspended in deionized water, and TMT labeling was performed according to Zecha et al. ([35]). All 15 samples (5 treatment conditions in triplicates) were labeled with one TMTpro plex. Next, equal amounts were pooled and desalted by C18 solid-phase extraction cartridges (Sep-Pak Vac 1 cc C18 Cartridges, Waters Corp). Desalted peptides were chromatographically separated via basic reversed phase chromatography as previously described ([36]) into 24 fractions, dried down, and stored at −20 °C until further analysis.
(§3) Peptides were analyzed via LC-MS/MS on a Vanquish Neo UHPLC coupled to an Orbitrap Eclipse Tribrid mass spectrometer (Thermo Fisher Scientific). […] The mass spectrometer was operated in data-dependent mode and positive ionization mode. Samples were measured, employing a MS3 method with real-time search. […] Iontrap-MS2 spectra for peptide identification were acquired using HCD fragmentation with 35% NCE, an isolation window of 0.7 m/z, an AGC target value of 5e4 charges, and a maxIT of 35 ms. To obtain quantitative information on TMT reporter ions, each peptide precursor was fragmented again as for MS2 analysis followed by synchronous selection of the up to 10 most intense peptide fragments in the iontrap ([37]) and further fragmentation via HCD using an NCE of 55%. For the MS3 scan, real-time search was enabled to only trigger a MS3 scan for peptides that are TMT-labeled and can be identified (searched against a mouse database, same as used for maxquant processing). The MS3 scan was recorded in the OT at 30,000 resolution (scan range 110–500 m/z, isolation window of 0.7 m/z, AGC of 2e4 charges, maxIT of 120 ms). The cycle time was set to 3 s, and the dynamic exclusion lasted for 60 s.
(§4) Raw files were searched with Maxquant (v. 2.0.3.0) against the mouse reference proteome (UP000000589, canonical, download 10/2019, 55,029 entries) with standard settings for reporter ion MS3 unless described otherwise ([39]). Isotope impurities of the TMT lot were specified to allow MaxQuant the automated correction of TMT intensities. […] Trypsin/P was specified as the proteolytic enzyme with up to two missed cleavage sites allowed. […]

NUP-MDSC cell lysate [2] = assay: as above; assay type: binding, mouse; settings: for log2 FC cmpd2_26uM/cmpd3_26uM: soluble fraction, 26 uM
Description: as §1, §2, §3, §4

## CCOC(=O)c1nnn(-c2nn3nnnc3c3ccccc23)c1C [compound 2]
NUP-MDSC cell lysate [1]
  log2 FC cmpd2_26uM/cmpd3_26uM: 0.23
NUP-MDSC cell lysate [2]; 7.8 μM and 26 μM, vs compound 3
  stabilization of proteins against solvent-induced aggregation: significant stabilization of several proteins
NUP-MDSC cell lysate [2]; protein Magohb;Magoh
  log2 FC cmpd2_26uM/cmpd3_26uM: 0.25
NUP-MDSC cell lysate [2]; protein Srcap
  log2 FC cmpd2_26uM/cmpd3_26uM: -0.12
